# According to PMC12163657 (ACS Omega, 2025):
# How the values were obtained:
# [1] = molecular target: T1, ERα LBD (Homo sapiens, UniProt P03372); experiment: LanthaScreen TR-FRET ERα competitive binding assay
# T1 sequence (P03372 311-547 limits assumed): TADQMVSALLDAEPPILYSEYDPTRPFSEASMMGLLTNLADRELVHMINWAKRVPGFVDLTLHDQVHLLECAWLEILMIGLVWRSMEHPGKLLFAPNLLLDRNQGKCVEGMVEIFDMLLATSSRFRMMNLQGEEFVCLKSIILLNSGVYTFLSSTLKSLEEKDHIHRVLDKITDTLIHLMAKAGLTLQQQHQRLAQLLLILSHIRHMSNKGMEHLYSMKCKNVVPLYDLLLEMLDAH
# [2] = Human hepatocyte stability; type: in vitro ADME; conditions: hepatocytes
# [3] = molecular target: T2, ERα (Homo sapiens, UniProt P03372); experiment: Alkaline phosphatase; type: cell-based; conditions: Ishikawa, read-out: AP % E max, Ishikawa (ECC-1) cells, agonist mode, 72 h
# T2 sequence (P03372 1-595): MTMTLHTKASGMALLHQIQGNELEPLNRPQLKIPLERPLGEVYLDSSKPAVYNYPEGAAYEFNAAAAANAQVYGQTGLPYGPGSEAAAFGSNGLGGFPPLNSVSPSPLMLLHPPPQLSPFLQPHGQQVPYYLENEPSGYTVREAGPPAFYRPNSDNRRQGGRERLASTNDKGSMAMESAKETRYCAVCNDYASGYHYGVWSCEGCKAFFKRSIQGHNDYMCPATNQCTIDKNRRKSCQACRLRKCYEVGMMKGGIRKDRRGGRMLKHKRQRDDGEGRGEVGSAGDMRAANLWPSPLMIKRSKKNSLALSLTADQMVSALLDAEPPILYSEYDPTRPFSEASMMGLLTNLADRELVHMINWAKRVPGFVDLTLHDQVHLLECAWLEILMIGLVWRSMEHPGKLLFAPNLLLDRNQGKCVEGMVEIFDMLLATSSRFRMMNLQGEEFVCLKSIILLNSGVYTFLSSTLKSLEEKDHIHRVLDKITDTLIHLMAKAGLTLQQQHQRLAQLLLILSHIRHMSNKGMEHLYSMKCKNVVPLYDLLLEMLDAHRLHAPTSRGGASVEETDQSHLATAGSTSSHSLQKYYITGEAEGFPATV
# [4] = molecular target: T2, ERα; experiment: Alkaline phosphatase; type: cell-based
# [5] = Mouse hepatocyte stability; type: in vitro ADME; conditions: hepatocytes
# [6] = In vivo mouse oral single dose PK; conditions: for total AUCinf / free AUCinf: oral single dose; for free AUCinf: estimated based on the percent free fraction; for Cmax / half-life: plasma, po
# [7] = Plasma protein binding, rapid equilibrium dialysis, mouse plasma; type: in vitro ADME; conditions: undiluted plasma
# [8] = test system: E2-induced uterine wet weight; experiment: Ovariectomized mouse uterine wet weight study; type: in vivo; conditions: dose giving 50% inhibition of E2-induced uterine wet weight; oral, once daily, 3 days
Structure (SMILES),IC50 [1] [nM],half-life [2] [h],hepatocyte CLint [2] [µL/min/1e6 cells],Emax [3] [%],IC50 [4] [nM],half-life [5] [h],hepatocyte CLint [5] [µL/min/1e6 cells],other results
"C[C@@H]1Cc2c([nH]c3ccccc23)[C@@H](c2ccc(OCCN3CC(CF)C3)c(F)c2)N1CC(C)(C)F [compound 26, C[C@@H]1Cc2c([nH]c3ccccc23)[C@H](N1CC(C)(C)F)c1ccc(c(c1)F)OCCN1CC(CF)C1]",2.51,4.55,5.1,2.1,2,3.78,6.1,
"CCCN1CC(Oc2ccc([C@@H]3c4[nH]c5ccccc5c4C[C@@H](C)N3C[C@@H](C)CO)cc2)C1 [compound 40, CCCN1CC(C1)Oc1ccc(cc1)[C@H]1N(C[C@@H](C)CO)[C@H](C)Cc2c1[nH]c1ccccc21]",1.26,2.62,8.8,0.4,3.16,3.05,7.6,
"CCCN1CC(Oc2ccc([C@@H]3c4[nH]c5ccccc5c4C[C@@H](C)N3CCC(C)(C)F)cc2)C1 [compound 42, CCCN1CC(C1)Oc1ccc(cc1)[C@H]1N(CCC(C)(C)F)[C@H](C)Cc2c1[nH]c1ccccc21]",15.8,,,0,50.1,,,
"CCCN1CC(Cc2ccc([C@@H]3c4[nH]c5ccccc5c4C[C@@H](C)N3CC(C)(C)F)cc2F)C1 [compound 27, CCCN1CC(C1)Cc1ccc(cc1F)[C@H]1N(CC(C)(C)F)[C@H](C)Cc2c1[nH]c1ccccc21]",2,,,7.4,5.01,,,
"CCCN1CC(Oc2ccc([C@@H]3c4[nH]c5ccccc5c4C[C@@H](C)N3C[C@H](C)CO)cc2)C1 [compound 37, CCCN1CC(C1)Oc1ccc(cc1)[C@H]1N(C[C@H](C)CO)[C@H](C)Cc2c1[nH]c1ccccc21]",0.501,,,0.7,10,,,
"CCCN1CC(Oc2cc(F)c([C@@H]3c4[nH]c5ccccc5c4C[C@@H](C)N3CC(C)(C)F)c(F)c2)C1 [compound 32, CCCN1CC(C1)Oc1cc(c(c(c1)F)[C@H]1N(CC(C)(C)F)[C@H](C)Cc2c1[nH]c1ccccc21)F]",,5.4,4.3,,,> 6,< 3.9,"total AUCinf [6]: 2743 ng·h/mL; free AUCinf [6]: 0.3 ng·h/mL; Cmax [6]: 219 ng/mL; half-life [6]: 15 h; fraction unbound at 4 h, 1 µM [7]: 0.0001"
"CCCCN1CC(Oc2ccc([C@@H]3c4[nH]c5ccccc5c4C[C@@H](C)N3CC(C)(C)F)cc2)C1 [compound 35, CCCCN1CC(C1)Oc1ccc(cc1)[C@H]1N(CC(C)(C)F)[C@H](C)Cc2c1[nH]c1ccccc21]",1.58,,,27,,,,
"CCCN1CC(Cc2cc(F)c([C@@H]3c4[nH]c5ccccc5c4C[C@@H](C)N3CC(C)(C)F)c(F)c2)C1 [compound 31, CCCN1CC(C1)Cc1cc(c(c(c1)F)[C@H]1N(CC(C)(C)F)[C@H](C)Cc2c1[nH]c1ccccc21)F]",5.01,> 6,< 3.9,5.4,1.58,> 6,< 3.9,
"C[C@@H]1Cc2c([nH]c3ccccc23)[C@@H](c2ccc(OCCN3CC(CF)C3)cc2)N1CC(C)(C)F [compound 23, C[C@@H]1Cc2c([nH]c3ccccc23)[C@H](N1CC(C)(C)F)c1ccc(cc1)OCCN1CC(CF)C1]",1.58,3.82,6.1,,1.26,5.37,4.3,"total AUCinf [6]: 2289 ng·h/mL; free AUCinf [6]: 3.9 ng·h/mL; Cmax [6]: 186 ng/mL; half-life [6]: 7 h; uterine wet weight ID50 [8]: <0.1 mg/kg; fraction unbound at 4 h, 1 µM [7]: 0.0017"
"CCCCCN1CC(Oc2ccc([C@@H]3c4[nH]c5ccccc5c4C[C@@H](C)N3CC(C)(C)F)cc2)C1 [compound 36, CCCCCN1CC(C1)Oc1ccc(cc1)[C@H]1N(CC(C)(C)F)[C@H](C)Cc2c1[nH]c1ccccc21]",2.51,,,93,,,,
"CCCN1CC(Oc2ccc([C@@H]3c4[nH]c5ccccc5c4C[C@@H](C)N3CC(F)(F)CO)cc2)C1 [compound 38, CCCN1CC(C1)Oc1ccc(cc1)[C@H]1N(CC(F)(F)CO)[C@H](C)Cc2c1[nH]c1ccccc21]",1,1.27,18.2,0,0.158,3.83,6,
"C[C@@H]1Cc2c([nH]c3ccccc23)[C@@H](c2c(F)cc(CCCN3CC(CF)C3)cc2F)N1CC(C)(C)F [compound 29, C[C@@H]1Cc2c([nH]c3ccccc23)[C@H](N1CC(C)(C)F)c1c(cc(cc1F)CCCN1CC(CF)C1)F]",2.51,,,,,,,
"C[C@@H]1Cc2c([nH]c3ccccc23)[C@@H](c2ccc(CCCN3CC(CF)C3)c(F)c2)N1CC(C)(C)F [compound 25, C[C@@H]1Cc2c([nH]c3ccccc23)[C@H](N1CC(C)(C)F)c1ccc(c(c1)F)CCCN1CC(CF)C1]",3.98,,,22,7.94,,,
"C[C@]12CC[C@@H]3c4ccc(O)cc4C[C@@H](CCCCCCCCC[S+]([O-])CCCC(F)(F)C(F)(F)F)[C@H]3[C@@H]1CC[C@@H]2O (stereo partly shown) [fulvestrant 3, fulvestrant, reference compound]",,,,0.1,,,,
"CCCN1CC(Oc2ccc([C@@H]3c4[nH]c5ccccc5c4C[C@@H](C)N3CCC(C)(C)O)cc2)C1 [compound 39, CCCN1CC(C1)Oc1ccc(cc1)[C@H]1N(CCC(C)(C)O)[C@H](C)Cc2c1[nH]c1ccccc21]",1.26,,,2,398,,,
"CCCN1CC(Oc2ccc([C@@H]3c4[nH]c5ccccc5c4C[C@@H](C)N3CC(F)(F)COC)cc2)C1 [compound 41, CCCN1CC(C1)Oc1ccc(cc1)[C@H]1N(CC(F)(F)COC)[C@H](C)Cc2c1[nH]c1ccccc21]",1,1.65,14.1,0.9,5.01,1.27,18.2,potency loss in AP (antag.) relative to 38 ([4]; replacing OH with OMe): 1.5 log
"CCN1CC(Oc2ccc([C@@H]3c4[nH]c5ccccc5c4C[C@@H](C)N3CC(C)(C)F)cc2)C1 [compound 34, CCN1CC(C1)Oc1ccc(cc1)[C@H]1N(CC(C)(C)F)[C@H](C)Cc2c1[nH]c1ccccc21]",0.501,,,4.6,,,,
"C[C@@H]1Cc2c([nH]c3ccccc23)[C@@H](c2ccc(OC3CN(C)C3)cc2)N1CC(C)(C)F [compound 33, C[C@@H]1Cc2c([nH]c3ccccc23)[C@H](N1CC(C)(C)F)c1ccc(cc1)OC1CN(C)C1]",0.501,,,10,7.94,,,
"CCCN1CC(Cc2ccc([C@@H]3c4[nH]c5ccccc5c4C[C@@H](C)N3CC(C)(C)F)cc2)C1 [compound 24, CCCN1CC(C1)Cc1ccc(cc1)[C@H]1N(CC(C)(C)F)[C@H](C)Cc2c1[nH]c1ccccc21]",3.98,,,8.5,3.16,,,
"C[C@@H]1Cc2c([nH]c3ccccc23)[C@@H](c2ccc(CCCN3CC(CF)C3)cc2)N1CC(C)(C)F [compound 22, C[C@@H]1Cc2c([nH]c3ccccc23)[C@H](N1CC(C)(C)F)c1ccc(cc1)CCCN1CC(CF)C1]",1.58,,,> 50,,,,
"CCCN1CC(Oc2ccc([C@@H]3c4[nH]c5ccccc5c4C[C@@H](C)N3CC(C)(C)F)cc2F)C1 [compound 28, CCCN1CC(C1)Oc1ccc(cc1F)[C@H]1N(CC(C)(C)F)[C@H](C)Cc2c1[nH]c1ccccc21]",3.98,,,3.1,10,,,
"C[C@@H]1Cc2c([nH]c3ccccc23)[C@@H](c2c(F)cc(OCCN3CC(CF)C3)cc2F)N1CC(C)(C)F [compound 30, C[C@@H]1Cc2c([nH]c3ccccc23)[C@H](N1CC(C)(C)F)c1c(cc(cc1F)OCCN1CC(CF)C1)F]",,4.5,5.1,,,> 6,< 3.9,"total AUCinf [6]: 2090 ng·h/mL; free AUCinf [6]: 0.8 ng·h/mL; Cmax [6]: 112 ng/mL; half-life [6]: 11 h; fraction unbound at 4 h, 1 µM [7]: 0.0004"
